Tested on: Human Leukemia Cell K562
Assay: Inhibitory effects on Human Leukemia Cell K562 (MTT)
Type: cell-based
Conditions: Homo sapiens, K562 cells, 72 h~120 h
Experimental: K562 cells were seeded in RPMI1640 cell culture solution containing 10% of fetal calf serum (supplemented with 100 ku/L of penicillin and streptomycin each). Culture dish was placed in the cell incubator under 5% of CO2 at 37° C. The culture solution was centrifuged and replaced every 2-3 days to passage and collect cells.
Cells in logarithmic growth phase were formulated into the cell suspensions at the required concentration with RPMI1640 culture solution containing 10% fetal calf serum. The resulting mixture was added to 96-wells cell culture plate at 3,000 cells per well (100 μl); after 12 hours of culture, to each well was added different amount of stock solution. The final concentrations of the samples are 100 μg/ml, 10 μg/ml, 1 μg/ml, […], and 0.01 μg/ml respectively in triplicate. After 72 h˜120 h, supernatant was discarded. To each well was added […] fresh serum-free culture solution containing 5 mg/ml blue tetrazolium (MTT). After culturing for 4 hours at 37° C., the mixture was centrifuged at 3000 rpm/min and the supernatant was discarded. Formazan was dissolved with 200 μl DMSO. After vortex oscillation for 1 min, absorbance value (OD-value) was measured on microplate reader at the wavelength of 570/450 nm. Inhibition ratio=(control group OD-value−drug group OD-value)/control group OD-value×100%.

Row | Compound | IC50
1 | CCN1CCN(c2ccc(NC(=O)c3ccc(C)c(NC(=O)/C=C/c4cccnc4)c3)cc2C(F)(F)F)CC1 [compound 74, N-(4-(4-ethylpiperazin-1-yl)-3-(trifluoromethyl)phenyl)-4-methyl-3-(3-(pyridin-3-yl)acrylamido)benzamide] | 2 to 20 nM
2 | Cc1ccc(C(=O)Nc2ccc(Cl)c(C(F)(F)F)c2)cc1NC(=O)/C=C/c1cncnc1 [compound 79, N-(4-chloro-3-(trifluoromethyl)phenyl)-4-methyl-3-(3-(pyrimidin-5-yl)acrylamido)benzamide] | 2 to 20 nM
3 | Cc1ccc(NC(=O)c2ccc(C)c(NC(=O)/C=C/c3cncnc3)c2)cc1F [compound 80, N-(3-fluoro-4-methylphenyl)-4-methyl-3-(3-(pyrimidin-5-yl)acrylamido)benzamide] | 2 to 20 nM
4 | Cc1ccc(C(=O)Nc2c(C)cccc2Cl)cc1NC(=O)/C=C/c1cncnc1 [compound 82, N-(2-chloro-6-methylphenyl)-4-methyl-3-(3-(pyrimidin-5-yl)acrylamido)benzamide] | < 20 nM
5 | Cc1ccc(NC(=O)Nc2ccc(F)c(Cl)c2)cc1NC(=O)/C=C/c1cccnc1 [compound 102, N-(5-(3-(3-chloro-4-fluorophenyl)ureido)-2-methylphenyl)-3-(pyridin-3-yl)acrylamide] | 10 to 20 nM

Results, then the compound that gave them:

Row | IC50 | Compound
6 | < 1 nM | Cc1ccc(C(=O)Nc2ccc(C)c(C(F)(F)F)c2)cc1NC(=O)/C=C/c1cncnc1 [compound 77, N-(4-methyl-3-(trifluoromethyl)phenyl)-4-methyl-3-(3-(pyrimidin-5-yl)acrylamido)benzamide]
7 | < 1 nM | Cc1ccc(C(=O)Nc2ccc(N3CCOCC3)c(C(F)(F)F)c2)cc1NC(=O)/C=C/c1cncnc1 [compound 78, N-(4-(morpholin-4-yl)-3-(trifluoromethyl)phenyl)-4-methyl-3-(3-(pyrimidin-5-yl)acrylamido)benzamide]
8 | < 20 nM | Cc1ccc(C(=O)Nc2ccc(F)c(Cl)c2)cc1NC(=O)/C=C/c1cncnc1 [compound 81, N-(3-chloro-4-fluorophenyl)-4-methyl-3-(3-(pyrimidin-5-yl)acrylamido)benzamide]
9 | < 1 nM | Cc1cn(-c2cc(NC(=O)c3ccc(C)c(NC(=O)/C=C/c4cncnc4)c3)cc(C(F)(F)F)c2)cn1 [compound 90, N-(3-(4-methyl-1H-imidazol-1-yl)-5-(trifluoromethyl)phenyl)-4-methyl-3-(3-(pyrimidin-5-yl)acrylamido)benzamide]

Reference: patent US8426446B2, “Acrylamide derivative and use thereof in manufacture of medicament” (Beijing Shiqiao Biopharm Co. Ltd., priority 2009, dated 2013)
